Assays:
[1] = molecular target: T1, catalytic domain (JH1, amino acids 826-1132) of human JAK2 (Homo sapiens, UniProt O60674); assay: JAK2 LanthaScreen JH1 Binding Assay; settings: 50 nM fluorescent JAK2-JH1 tracer, 2 hours at 25° C.; read-out: JH1 BIND (EX. A)
T1 construct: catalytic domain (JH1, amino acids 826-1132) of human JAK2; FLAG (N); purchased Carna Biosciences 08-445-20N; host or cells: baculovirus expression system
Protocol: Example A. JAK2 LanthaScreen JH1 Binding Assay
JAK2 JH1 binding assay utilizes catalytic domain (JH1, amino acids 826-1132) of human JAK2 expressed as N-terminal FLAG-tagged, biotinylated protein in a baculovirus expression system (Carna Biosciences, Product #08-445-20N). The assay was conducted in black 384-well polystyrene plates in a final reaction volume of 20 μL. JAK2 JH1 (1.5 nM) was incubated with compounds (100 nL serially diluted in DMSO) in the presence of 50 nM fluorescent JAK2-JH1 tracer and 0.5 nM Streptavidin-Tb cryptate (Cisbio Part #610SATLB) in assay buffer (50 mM Tris, pH=7.5, 10 mM MgCl2, 0.01% Brij-35, 0.1% BSA, 1 mM EGTA, 5% Glycerol and 5 mM DTT). Non-specific binding was accessed in the presence of 2 mM ATP. After incubation for 2 hours at 25° C., LanthaScreen signals were read on a PHERAstar FS plate reader (BMG LABTECH). Data was analyzed with IDBS Xlfit and GraphPad Prism 5.0 software using a four parameter dose response curve to determine IC50 for each compound.

[2] = molecular target: T2, pseudo-kinase domain (JH2, amino-acids 536-812) of human Wild Type JAK2 (Homo sapiens, UniProt O60674, F794H/W659A/W777A); assay: JAK2 LanthaScreen JH2-WT Binding Assay; settings: 50 nM Fluorescent JAK2-JH2 Tracer, 1 hour at 25° C.; read-out: JH2 BIND WT (EX. B)
T2 construct: JH2, amino-acids 536-812 with 3 surface mutations W659A, W777A, F794H; His (C); purchased BPS Bioscience 79463; host or cells: baculovirus expression system
T2 sequence (O60674 536-812 W659A/W777A/F794H): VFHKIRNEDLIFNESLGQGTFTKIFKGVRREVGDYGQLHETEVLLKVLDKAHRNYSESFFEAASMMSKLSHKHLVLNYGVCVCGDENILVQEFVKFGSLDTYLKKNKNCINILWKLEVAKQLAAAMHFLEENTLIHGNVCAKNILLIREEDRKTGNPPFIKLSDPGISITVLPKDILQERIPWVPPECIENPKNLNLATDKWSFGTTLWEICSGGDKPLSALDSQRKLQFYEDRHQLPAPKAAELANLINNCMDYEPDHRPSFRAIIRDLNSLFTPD
Protocol: Example B. JAK2 LanthaScreen JH2-WT Binding Assay
(§1) JAK2 JH2-WT binding assay utilizes pseudo-kinase domain (JH2, amino-acids 536-812 with 3 surface mutations W659A, W777A, F794H) of human Wild Type JAK2 expressed as C-terminal His-Avi-tagged, biotinylated protein in a baculovirus expression system (BPS Bioscience, Catalog #79463). The assay was conducted in black 384-well polystyrene plates in a final reaction volume of 20 μL. JAK2 JH2-WT (0.145 nM) was incubated with compounds (100 nL serially diluted in DMSO) in the presence of 50 nM Fluorescent JAK2-JH2 Tracer (MedChem Express Catalog #HY-102055) and 0.25 nM Streptavidin-Tb cryptate (Cisbio Part #610SATLB) in assay buffer (50 mM Tris, pH=7.5, 10 mM MgCl2, 0.01% Brij-35, 0.1% BSA, 1 mM EGTA, 5% Glycerol and 5 mM DTT). Non-specific binding was accessed in the presence of 2 mM ATP. After incubation for 1 hour at 25° C., LanthaScreen signals were read on a PHERAstar FS plate reader (BMG LABTECH). Data was analyzed with IDBS Xlfit and GraphPad Prism 5.0 software using a four parameter dose response curve to determine IC50 for each compound.

[3] = molecular target: T3, pseudo-kinase domain (JH2, amino-acids 536-812) of human V617F mutant JAK2 (Homo sapiens, UniProt O60674, F794H/V617F/W659A/W777A); assay: JAK2 LanthaScreen JH2-V617F Binding Assay; settings: 50 nM Fluorescent JAK2-JH2 Tracer, 1 hour at 25° C.; read-out: JH2 BIND V617F (Ex. C)
T3 construct: JH2, amino-acids 536-812 with 3 surface mutations W659A, W777A, F794H; His (C); purchased BPS Bioscience 79498; host or cells: baculovirus expression system
T3 sequence (O60674 536-812 V617F/W659A/W777A/F794H): as the sequence (O60674 536-812 W659A/W777A/F794H) above, with V82F counted along it
Protocol: Example C. JAK2 LanthaScreen JH2-V617F Binding Assay
as §1, with “JH2-V617F” for “JH2-WT”, “V617F mutant” for “Wild Type”, “#79498).” for “#79463).”, “JH2-V617F (0.26” for “JH2-WT (0.145”

[4] = molecular target: T4, catalytic domain (JH1, amino acids 808-1132) of human JAK2 (Homo sapiens, UniProt O60674); assay: JAK2 HTRF Enzyme Activity Assay; assay type: biochemical; settings: ATP (30 μM or 1 mM; not stated which for the table), 60 minutes at 25° C.; read-out: JAK2 HTRF (Ex. D)
T4 construct: catalytic domain (JH1, amino acids 808-1132) of human JAK2; His (N); purchased BPS Bioscience 40450; host or cells: baculovirus expression system
T4 sequence (O60674 808-1132): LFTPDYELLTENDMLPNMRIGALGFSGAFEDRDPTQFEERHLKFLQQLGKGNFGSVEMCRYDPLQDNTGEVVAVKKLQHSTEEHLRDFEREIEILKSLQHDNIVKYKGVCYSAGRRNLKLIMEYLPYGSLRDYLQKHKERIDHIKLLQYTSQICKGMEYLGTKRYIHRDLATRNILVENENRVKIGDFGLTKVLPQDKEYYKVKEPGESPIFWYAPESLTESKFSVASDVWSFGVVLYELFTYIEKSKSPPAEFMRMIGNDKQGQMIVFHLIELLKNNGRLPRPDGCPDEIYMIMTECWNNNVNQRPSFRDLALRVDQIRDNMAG
Protocol: Example D. JAK2 HTRF Enzyme Activity Assay
JAK2 enzyme activity assays utilize catalytic domain (JH1, amino acids 808-1132) of human JAK2 expressed as N-terminal His-tagged protein in a baculovirus expression system (BPS Bioscience, Catalog #40450). The assays was conducted in black 384-well polystyrene plates in a final reaction volume of 20 μL. JAK2 (0.015 nM) was incubated with compounds (100 nL serially diluted in DMSO) in the presence of ATP (30 μM or 1 mM) and 500 nM Biotin-labeled EQEDEPEGDYFEWLE (SEQ ID NO.: 1) peptide (BioSource International, custom synthesis) in assay buffer (50 mM Tris, pH=7.5, 10 mM MgCl2, 0.01% Brij-35, 0.1% BSA, 1 mM EGTA, 5% Glycerol and 5 mM DTT) for 60 minutes at 25° C. The reactions were stopped by the addition of 10 μL of detection buffer (50 mM Tris, pH 7.8, 0.5 mg/mL BSA, 150 mM NaCl), supplemented with EDTA, LANCE Eu-W1024 anti-phosphotyrosine (PY20), (PerkinElmer, Catalog #AD0067) and Streptavidin SureLight APC (PerkinElmer Catalog #CR130-100), for a final concentration of 15 mM, 1.5 nM and 75 nM, respectively. HTRF signals were read after 30 minutes incubation at room temperature on a PHERAstar FS plate reader (BMG LABTECH). Data was analyzed with TDBS Xlfit and GraphPad Prism 5.0 software using a four parameter dose response curve to determine IC50 for each compound.

T1 sequence (O60674 826-1132): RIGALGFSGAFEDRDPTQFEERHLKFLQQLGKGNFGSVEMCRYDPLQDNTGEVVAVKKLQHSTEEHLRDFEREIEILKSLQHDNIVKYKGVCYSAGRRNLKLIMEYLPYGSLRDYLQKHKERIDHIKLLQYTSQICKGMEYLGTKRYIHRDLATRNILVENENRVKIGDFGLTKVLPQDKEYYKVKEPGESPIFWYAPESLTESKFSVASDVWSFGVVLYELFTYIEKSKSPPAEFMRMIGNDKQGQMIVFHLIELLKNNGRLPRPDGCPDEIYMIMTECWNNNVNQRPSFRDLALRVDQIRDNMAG

| Structure (SMILES) | IC50 [1] [nM] | IC50 [2] [nM] | IC50 [3] [nM] | IC50 [4] [nM] |
| --- | --- | --- | --- | --- |
| [2H]C([2H])([2H])n1c(=O)n([C@@H]2CC[C@@H](NC(=O)OC)C2)c2cc(Nc3cc(C(C)(C)C#N)c4cccc(C(F)(F)F)c4n3)ncc21 [Example 19, Methyl ((1R,3R)-3-(6-((4-(2-cyanopropan-2-yl)-8-(trifluoromethyl)quinolin-2-yl)amino)-3-(methyl-d3)-2-oxo-2,3-dihydro-1H-imidazo[4,5-c]pyridin-1-yl)cyclopentyl)carbamate] | > 1000 | ≤ 10 | ≤ 10 | > 1000 |
| [2H]C([2H])([2H])n1c(=O)n([C@@H]2CC[C@@H](NC(=O)OC)C2)c2cc(Nc3cc(C(=O)N(C)C(C)C)c4cccc(C(F)(F)F)c4n3)ncc21 [Example 10, Methyl ((1R,3R)-3-(6-((4-(isopropyl(methyl)carbamoyl)-8-(trifluoromethyl)quinolin-2-yl)amino)-3-(methyl-d3)-2-oxo-2,3-dihydro-1H-imidazo[4,5-c]pyridin-1-yl)cyclopentyl)carbamate] | > 1000 | ≤ 10 | ≤ 10 | > 1000 |
| [2H]C([2H])([2H])n1c(=O)n([C@@H]2CC[C@@H](NC(=O)OC)C2)c2cc(Nc3cc(S(C)(=O)=O)c4cccc(C(F)(F)F)c4n3)ncc21 [Example 6, Methyl ((1R,3R)-3-(3-(methyl-d3)-6-((4-(methylsulfonyl)-8-(trifluoromethyl)quinolin-2-yl)amino)-2-oxo-2,3-dihydro-1H-imidazo[4,5-c]pyridin-1-yl)cyclopentyl)carbamate] | > 1000 | ≤ 10 | ≤ 10 | > 1000 |
| [2H]C([2H])([2H])n1c(=O)n([C@@H]2CC[C@@H](NC(=O)OC)C2)c2cc(Nc3cc(CC#N)c4cccc(C(F)(F)F)c4n3)ncc21 [Example 18, Methyl ((1R,3R)-3-(6-((4-(cyanomethyl)-8-(trifluoromethyl)quinolin-2-yl)amino)-3-(methyl-d3)-2-oxo-2,3-dihydro-1H-imidazo[4,5-c]pyridin-1-yl)cyclopentyl)carbamate] | 500 to 1000 | ≤ 10 | ≤ 10 | 500 to 1000 |
| COC(=O)N[C@@H]1CC[C@@H](n2c(=O)n(C)c3cnc(Nc4cc(Cl)c5cccc(C(F)(F)F)c5n4)cc32)C1 [Example 21, Methyl ((1R,3R)-3-(6-((4-chloro-8-(trifluoromethyl)quinolin-2-yl)amino)-3-methyl-2-oxo-2,3-dihydro-1H-imidazo[4,5-c]pyridin-1-yl)cyclopentyl)carbamate] | > 1000 | ≤ 10 | ≤ 10 | > 1000 |
| [2H]C([2H])([2H])n1c(=O)n([C@@H]2CC[C@@H](NC(=O)OC)C2)c2cc(Nc3ccc4c(C(C)(C)O)ccc(C(F)(F)F)c4n3)ncc21 [Example 47, Methyl ((1R,3R)-3-(6-((5-(2-hydroxypropan-2-yl)-8-(trifluoromethyl)quinolin-2-yl)amino)-3-(methyl-d3)-2-oxo-2,3-dihydro-1H-imidazo[4,5-c]pyridin-1-yl)cyclopentyl)carbamate] | > 1000 | ≤ 10 | ≤ 10 | > 1000 |
| COC(=O)N[C@@H]1CC[C@@H](n2c(=O)n(C)c3cnc(Nc4ccc5cccc(Br)c5n4)cc32)C1 [Example 24, Methyl ((1R,3R)-3-(6-((8-bromoquinolin-2-yl)amino)-3-methyl-2-oxo-2,3-dihydro-1H-imidazo[4,5-c]pyridin-1-yl)cyclopentyl)carbamate] | > 1000 | ≤ 10 | ≤ 10 | > 1000 |
| [2H]C([2H])([2H])n1c(=O)n([C@H]2C[C@H](NC(=O)OC3CC3)C2)c2cc(Nc3cc(C(C)(C)O)c4cccc(C(F)(F)F)c4n3)ncc21 [Example 16, Cyclopropyl ((trans)-3-(6-((4-(2-hydroxypropan-2-yl)-8-(trifluoromethyl)quinolin-2-yl)amino)-3-(methyl-d3)-2-oxo-2,3-dihydro-1H-imidazo[4,5-c]pyridin-1-yl)cyclobutyl)carbamate] | 100 to 500 | ≤ 10 | ≤ 10 | 100 to 500 |
| [2H]C([2H])([2H])n1c(=O)n([C@@H]2CC[C@@H](NC(=O)OC)C2)c2cc(Nc3ccc4ncc(C(C)C(F)(F)F)n4n3)ncc21 (stereo partly drawn) [Example 30, Methyl ((1R,3R)-3-(3-(methyl-d3)-2-oxo-6-((3-(1,1,1-trifluoropropan-2-yl)imidazo[1,2-b]pyridazin-6-yl)amino)-2,3-dihydro-1H-imidazo[4,5-c]pyridin-1-yl)cyclopentyl)carbamate] | > 1000 | ≤ 10 | ≤ 10 | > 1000 |
| [2H]C([2H])([2H])n1c(=O)n([C@@H]2CC[C@@H](NC(=O)OC)C2)c2cc(Nc3cc(C(C)(C)O)c4nccc(C)c4n3)ncc21 [Example 29, Methyl ((1R,3R)-3-(6-((4-(2-hydroxypropan-2-yl)-8-methyl-1,5-naphthyridin-2-yl)amino)-3-(methyl-d3)-2-oxo-2,3-dihydro-1H-imidazo[4,5-c]pyridin-1-yl)cyclopentyl)carbamate] | > 1000 | ≤ 10 | ≤ 10 | > 1000 |
